The values that follow come from patent US20150252047A1, “SUBSTITUTED INDAZOL-PYRROLOPYRIMIDINES USEFUL IN THE TREATMENT OF HYPERPROLIFERATIVE DISEASES” (BAYER PHARMA AKTIENGESELLSCHAFT, priority 2012, published 2015).

Some results are limits rather than exact numbers.

In the assay the target is T1, human full-length MKNK1 (Homo sapiens, UniProt Q9BUB5, T385D).
T1 construct: GST (N); purchased Carna Biosciences 02-145; host or cells: insect cells (baculovirus expression system)
T1 sequence (Q9BUB5 1-424 isoform Q9BUB5-2 T344D): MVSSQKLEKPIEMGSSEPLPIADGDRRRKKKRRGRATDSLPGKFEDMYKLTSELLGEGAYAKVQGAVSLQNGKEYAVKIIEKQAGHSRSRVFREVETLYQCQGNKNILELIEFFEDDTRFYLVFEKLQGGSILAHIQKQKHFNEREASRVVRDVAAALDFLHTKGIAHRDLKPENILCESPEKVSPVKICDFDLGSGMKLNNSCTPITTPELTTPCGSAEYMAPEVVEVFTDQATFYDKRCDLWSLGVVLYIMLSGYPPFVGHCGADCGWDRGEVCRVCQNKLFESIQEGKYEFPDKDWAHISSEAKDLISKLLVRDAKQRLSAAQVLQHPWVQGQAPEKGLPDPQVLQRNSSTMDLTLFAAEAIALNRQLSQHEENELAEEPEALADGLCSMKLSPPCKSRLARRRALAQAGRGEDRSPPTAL
Briefly: MKNK1 kinase high ATP assay (TR-FRET). Type of assay: biochemical. As to conditions: high ATP (2 mM final), 15 min preincubation with enzyme, 30 min reaction at 22° C. Here is the method:
MKNK1-inhibitory activity at high ATP of compounds of the present invention after their preincubation with MKNK1 was quantified employing the TR-FRET-based MKNK1 high ATP assay as described in the following paragraphs.
A recombinant fusion protein of Glutathione-S-Transferase (GST, N-terminally) and human full-length MKNK1 (amino acids 1-424 and T344D of accession number BAA 19885.1), expressed in insect cells using baculovirus expression system and purified via glutathione sepharose affinity chromatography, was purchased from Carna Biosciences (product no 02-145) and used as enzyme. As substrate for the kinase reaction the biotinylated peptide biotin-Ahx-IKKRKLTRRKSLKG (C-terminus in amide form) was used, which can be purchased e.g. from the company Biosyntan (Berlin-Buch, Germany).
For the assay 50 nL of a 100 fold concentrated solution of the test compound in DMSO was pipetted into a black low volume 384 well microtiter plate (Greiner Bio-One, Frickenhausen, Germany), 2 μL of a solution of MKNK1 in aqueous assay buffer [50 mM HEPES pH 7.5, 5 mM MgCl2, 1.0 mM dithiothreitol, 0.005% (v/v) Nonidet-P40 (Sigma)] was added and the mixture was incubated for 15 min at 22° C. to allow pre-binding of the test compounds to the enzyme before the start of the kinase reaction. Then the kinase reaction was started by the addition of 3 μL of a solution of adenosine-tri-phosphate (ATP, 3.3 mM=>final conc. in the 5 μL assay volume is 2 mM) and substrate (0.1 μM=>final conc. in the 5 μL assay volume is 0.06 μM) in assay buffer and the resulting mixture was incubated for a reaction time of 30 min at 22° C. The concentration of MKNK1 was adjusted depending of the activity of the enzyme lot and was chosen appropriate to have the assay in the linear range, typical concentrations were in the range of 0.003 μg/mL. The reaction was stopped by the addition of 5 μL of a solution of TR-FRET detection reagents (5 nM streptavidine-XL665 [Cisbio Bioassays, Codolet, France] and 1 nM anti-ribosomal protein S6 (pSer236)-antibody from Invitrogen [#44921G] and 1 nM LANCE EU-W1024 Labeled ProteinG [Perkin-Elmer, product no. AD0071]) in an aqueous EDTA-solution (100 mM EDTA, 0.1% (w/v) bovine serum albumin in 50 mM HEPES pH 7.5).
The resulting mixture was incubated for 1 h at 22° C. to allow the formation of complex between the phosphorylated biotinylated peptide and the detection reagents. Subsequently the amount of phosphorylated substrate was evaluated by measurement of the resonance energy transfer from the Eu-chelate to the streptavidine-XL. Therefore, the fluorescence emissions at 620 nm and 665 nm after excitation at 350 nm were measured in a TR-FRET reader, e.g. a Rubystar (BMG Labtechnologies, Offenburg, Germany) or a Viewlux (Perkin-Elmer). The ratio of the emissions at 665 nm and at […] was taken as the measure for the amount of phosphorylated substrate. The data were normalised (enzyme reaction without inhibitor=0% inhibition, all other assay components but no enzyme=100% inhibition).
Background: TR-FRET usually uses a lanthanide donor and a delayed reading to cut background.
What is called IC50 is the point on the concentration scale where inhibition reaches its midpoint. A lower IC50 goes with greater potency. `CN1CCN(C(=O)c2c[nH]c3ncnc(Nc4cc5cn[nH]c5cc4F)c23)CC1` [Example 17, {4-[(6-Fluoro-1H-indazol-5-yl)amino]-7H-pyrrolo[2,3-d]pyrimidin-5-yl}(4-methylpiperazin-1-yl)methanone] had a 50% inhibitory concentration (IC50) of 30 nM.
In the case of `CCOC(=O)c1[nH]c2ncnc(Nc3cc4cn[nH]c4cc3OC(C)C)c2c1Br` [Example 63, Ethyl 5-bromo-4-{[6-(propan-2-yloxy)-1H-indazol-5-yl]amino}-7H-pyrrolo[2,3-d]pyrimidine-6-carboxylate] it was 1 nM; in that of `COc1cc2[nH]ncc2cc1Nc1ncnc2[nH]c(C(=O)N(C)C)c(Br)c12` [Example 59, 5-Bromo-4-[(6-methoxy-1H-indazol-5-yl)amino]-N,N-dimethyl-7H-pyrrolo[2,3-d]pyrimidine-6-carboxamide], 1 nM.
In the case of `N#Cc1n[nH]c2ccc(Nc3ncnc4[nH]ccc34)cc12` [Example 43, 5-(7H-Pyrrolo[2,3-d]pyrimidin-4-ylamino)-1H-indazole-3-carbonitrile] it was 1340 nM; in that of `Cc1cc2[nH]ncc2cc1Nc1ncnc2[nH]cc(F)c12` [Example 11, 5-Fluoro-N-(6-methyl-1H-indazol-5-yl)-7H-pyrrolo[2,3-d]pyrimidin-4-amine], 74 nM.
In the case of `CCOc1cc2[nH]ncc2cc1Nc1ncnc2[nH]c(CC)c(C)c12` [Example 44, N-(6-Ethoxy-1H-indazol-5-yl)-6-ethyl-5-methyl-7H-pyrrolo[2,3-d]pyrimidin-4-amine] it was 3 nM.
Compound `COc1cc2[nH]ncc2cc1Nc1ncnc2[nH]c(C(=O)NCC(=O)N(C)C)c(Br)c12` [Example 68, 5-Bromo-N-[2-(dimethylamino)-2-oxoethyl]-4-[(6-methoxy-1H-indazol-5-yl)amino]-7H-pyrrolo[2,3-d]pyrimidine-6-carboxamide] displayed a concentration for half-maximal inhibition (IC50) of 14 nM.
In the case of `COc1cc2[nH]ncc2cc1Nc1ncnc2[nH]ccc12` [Example 2, N-(6-methoxy-1H-indazol-5-yl)-7H-pyrrolo[2,3-d]pyrimidin-4-amine] it was 17 nM; in that of `COc1cc2[nH]ncc2cc1Nc1ncnc2[nH]c(C(=O)N3CCOCC3)c(Br)c12` [Example 58, {5-Bromo-4-[(6-methoxy-1H-indazol-5-yl)amino]-7H-pyrrolo[2,3-d]pyrimidin-6-yl}(morpholin-4-yl)methanone], 2 nM; in that of `CC(C)Oc1cc2[nH]ncc2cc1Nc1ncnc2[nH]cc(Br)c12` [Example 26, 5-Bromo-N-[6-(propan-2-yloxy)-1H-indazol-5-yl]-7H-pyrrolo[2,3-d]pyrimidin-4-amine], 2 nM.
In the case of `Cc1cc2[nH]ncc2cc1Nc1ncnc2[nH]cc(C(=O)NC(C)C)c12` [Example 14, 4-[(6-Methyl-1H-indazol-5-yl)amino]-N-(propan-2-yl)-7H-pyrrolo[2,3-d]pyrimidine-5-carboxamide] it was 34 nM.
In the case of `CCc1c[nH]c2ncnc(Nc3cc4cn[nH]c4cc3OC)c12` [Example 57, 5-Ethyl-N-(6-methoxy-1H-indazol-5-yl)-7H-pyrrolo[2,3-d]pyrimidin-4-amine] it was 1 nM; in that of `COc1cc2[nH]ncc2cc1Nc1ncnc2[nH]cc(C(F)(F)F)c12` [Example 49, N-(6-Methoxy-1H-indazol-5-yl)-5-(trifluoromethyl)-7H-pyrrolo[2,3-d]pyrimidin-4-amine], 16 nM.
With `COc1cc2[nH]ncc2cc1Nc1ncnc2[nH]c(S(=O)(=O)c3ccccc3)cc12` [Example 50, N-(6-Methoxy-1H-indazol-5-yl)-6-(phenylsulfonyl)-7H-pyrrolo[2,3-d]pyrimidin-4-amine], the IC50 was below 1 nM.
In the case of `CC(C)Oc1cc2[nH]ncc2cc1Nc1ncnc2[nH]cc(F)c12` [Example 25, 5-Fluoro-N-[6-(propan-2-yloxy)-1H-indazol-5-yl]-7H-pyrrolo[2,3-d]pyrimidin-4-amine] it was 5 nM.
In turn, `CC(C)Oc1cc2[nH]ncc2cc1Nc1ncnc2[nH]ccc12` [Example 24, N-[6-(Propan-2-yloxy)-1H-indazol-5-yl]-7H-pyrrolo[2,3-d]pyrimidin-4-amine] returned a concentration for half-maximal inhibition (IC50) of 26 nM.
Take `COc1cc2[nH]ncc2cc1Nc1ncnc2[nH]c(C(=O)N3C[C@@H]4C[C@H]3CO4)c(Br)c12` [Example 64, {5-Bromo-4-[(6-methoxy-1H-indazol-5-yl)amino]-7H-pyrrolo[2,3-d]pyrimidin-6-yl}[(1S,4S)-2-oxa-5-azabicyclo[2.2.1]hept-5-yl]methanone]: inhibition was half-maximal at 1 nM (IC50).
In the case of `Cc1cc2[nH]ncc2cc1Nc1ncnc2[nH]cc(C(=O)O)c12` [Example 8, 4-[(6-Methyl-1H-indazol-5-yl)amino]-7H-pyrrolo[2,3-d]pyrimidine-5-carboxylic acid] it was 72 nM; in that of `CC(C)Oc1cc2[nH]ncc2cc1Nc1ncnc2[nH]cc(C(=O)N3CCN(C)CC3)c12` [Example 29, (4-Methylpiperazin-1-yl)(4-{[6-(propan-2-yloxy)-1H-indazol-5-yl]amino}-7H-pyrrolo[2,3-d]pyrimidin-5-yl)methanone], 117 nM; in that of `COc1cc2[nH]ncc2cc1Nc1ncnc2[nH]c(CCCO)cc12` [Example 23, 3-{4-[(6-Methoxy-1H-indazol-5-yl)amino]-7H-pyrrolo[2,3-d]pyrimidin-6-yl}propan-1-ol], 27 nM.
In the case of `CCc1[nH]c2ncnc(Nc3cc4cn[nH]c4cc3OC(C)C)c2c1C` [Example 27, 6-Ethyl-5-methyl-N-[6-(propan-2-yloxy)-1H-indazol-5-yl]-7H-pyrrolo[2,3-d]pyrimidin-4-amine] it was 3 nM; in that of `CCc1[nH]c2ncnc(Nc3cc4cn[nH]c4cc3OC)c2c1C` [Example 1, 6-Ethyl-N-(6-methoxy-1H-indazol-5-yl)-5-methyl-7H-pyrrolo[2,3-d]pyrimidin-4-amine], 3 nM.
In the case of `CC(C)Oc1cc2[nH]ncc2cc1Nc1ncnc2[nH]c(Cl)cc12` [Example 40, 6-Chloro-N-[6-(propan-2-yloxy)-1H-indazol-5-yl]-7H-pyrrolo[2,3-d]pyrimidin-4-amine] it was 29 nM; in that of `COc1cc2[nH]ncc2cc1Nc1ncnc2[nH]c(C)cc12` [Example 37, N-(6-Methoxy-1H-indazol-5-yl)-6-methyl-7H-pyrrolo[2,3-d]pyrimidin-4-amine], 23 nM.
`COc1cc2[nH]ncc2cc1Nc1ncnc2[nH]cc(Br)c12` [Example 19, 5-Bromo-N-(6-methoxy-1H-indazol-5-yl)-7H-pyrrolo[2,3-d]pyrimidin-4-amine]: half-maximal inhibition (IC50) was put at 1 nM.
In the case of `Fc1cc2[nH]ncc2cc1Nc1ncnc2[nH]cc(F)c12` [Example 9, 5-Fluoro-N-(6-fluoro-1H-indazol-5-yl)-7H-pyrrolo[2,3-d]pyrimidin-4-amine] it was 29 nM; in that of `CN(C)C(=O)c1c[nH]c2ncnc(Nc3cc4cn[nH]c4cc3F)c12` [Example 16, 4-[(6-Fluoro-1H-indazol-5-yl)amino]-N, N-dimethyl-7H-pyrrolo[2,3-d]pyrimidine-5-carboxamide], 31 nM; in that of `Fc1cc2[nH]ncc2cc1Nc1ncnc2[nH]cc(Br)c12` [Example 15, 5-Bromo-N-(6-fluoro-1H-indazol-5-yl)-7H-pyrrolo[2,3-d]pyrimidin-4-amine], 12 nM.
`Cc1ccc(S(=O)(=O)c2cc3c(Nc4cc5cn[nH]c5cc4OC(C)C)ncnc3[nH]2)cc1` [Example 53, 6-[(4-Methylphenyl)sulfonyl]-N-[6-(propan-2-yloxy)-1H-indazol-5-yl]-7H-pyrrolo[2,3-d]pyrimidin-4-amine] showed an IC50 of 2 nM.
In the case of `COc1cc2[nH]ncc2cc1Nc1ncnc2[nH]c(CC(C)C)c(C(C)C)c12` [Example 56, N-(6-Methoxy-1H-indazol-5-yl)-6-(2-methylpropyl)-5-(propan-2-yl)-7H-pyrrolo[2,3-d]pyrimidin-4-amine] it was 1 nM.
In the case of `COc1cc2[nH]ncc2cc1Nc1ncnc2[nH]c(S(C)(=O)=O)cc12` [Example 21, N-(6-Methoxy-1H-indazol-5-yl)-6-(methylsulfonyl)-7H-pyrrolo[2,3-d]pyrimidin-4-amine] it was 6 nM.
